Experiments:
βTC6 insulinoma cell [1] = experiment: Cell viability assay in βTC6 insulinoma cell line; assay type: cell-based; conditions: βTC6, control 100.00
Description: Cell Viability Assay in βTC6 Insulinoma Cell Lime Following—

βTC6 insulinoma cell [2] = experiment: Anti-oxidant activity in βTC6 insulinoma cell challenged with H2O2; assay type: cell-based; parameters: Anti-oxidant activity, cells challenged with H2O2: unit not given here; conditions: for Anti-oxidant activity, cells challenged with H2O2: βTC6
Description: Anti-Oxidant Activity in βTC6 Insulinoma Cell Challenged with H2O2 Berberin and Quercetin—
Anti-Oxidant Activity in βTC6 Insulinoma Cell Challenged with H2O2 Berberin and Palmatine—

3T3-L1 cells [3] = experiment: Anti-oxidant activity in 3T3-L1 cells challenged with H2O2; assay type: cell-based; parameters: Anti-oxidant activity, cells challenged with H2O2: scale not given here; conditions: for Anti-oxidant activity, cells challenged with H2O2: 3T3-L1; for protection against H2O2 induced cellular oxidative damage: 3T3-L1 cells
Description: Anti-Oxidant Activity in 3T3-L1 Cells Challenged with H2O2 Berberin and Palmatine
Anti-Oxidant Activity in 3T3-L1 Cells Challenged with H2O2 Berberin and Quercetin

L6 cells = experiment: Anti-oxidant activity in L6 cells challenged with H2O2; assay type: cell-based; parameters: Anti-oxidant activity, cells challenged with H2O2: unit not given here; conditions: for Anti-oxidant activity, cells challenged with H2O2: L6; for protection against H2O2 induced cellular oxidative damage: L6 cells
Description: Anti-Oxidant Activity in L6 Cells Challenged with H2O2 Berberin and Palmatine
Anti-Oxidant Activity in L6 Cells Challenged with H2O2—Berberin and Quercetin

L6-myotubes = experiment: Anti-diabetic activity (glucose consumption) in L6-myotubes; assay type: cell-based; parameters: Anti-diabetic activity (glucose consumption): unit not given here; conditions: for Anti-diabetic activity (glucose consumption): L6-myotubes, control 1.00
3T3-L1 cells [4] = experiment: Cell viability assay in 3T3-L1 cells; conditions: for Cell viability: 3T3-L1, control 100.00
[5] = comparison with positive standard

Question: Which results are given for COc1cc2c(cc1OC)-c1cc3ccc(OC)c(OC)c3c[n+]1CC2 [Palmatine]?
Answer: Cell viability (βTC6 insulinoma cell [1]; 1 pM): 97.96 ± 1.10; Cell viability (βTC6 insulinoma cell [1]; 10 pM): 97.50 ± 2.05; Cell viability (βTC6 insulinoma cell [1]; 100 pM): 96.52 ± 2.70; Cell viability (βTC6 insulinoma cell [1]; 1 nM): 94.80 ± 1.32; Cell viability (βTC6 insulinoma cell [1]; 10 nM): 91.66 ± 1.60; Cell viability (βTC6 insulinoma cell [1]; 100 nM): 84.45 ± 1.30; Cell viability (βTC6 insulinoma cell [1]; 1 μM): 83.20 ± 1.90; Cell viability (βTC6 insulinoma cell [1]; 10 μM): 81.98 ± 1.70; Anti-oxidant activity, cells challenged with H2O2 (βTC6 insulinoma cell [2]; Co-incubated, 1 pM, control 55.54): 56.95 ± 3.60; Anti-oxidant activity, cells challenged with H2O2 (βTC6 insulinoma cell [2]; Co-incubated, 10 pM, control 55.54): 57.04 ± 2.00; Anti-oxidant activity, cells challenged with H2O2 (βTC6 insulinoma cell [2]; Co-incubated, 0.1 nM, control 55.54): 60.10 ± 1.41; Anti-oxidant activity, cells challenged with H2O2 (βTC6 insulinoma cell [2]; Co-incubated, 1 nM, control 55.54): 61.75 ± 2.16; Anti-oxidant activity, cells challenged with H2O2 (βTC6 insulinoma cell [2]; Co-incubated, 10 nM, control 55.54): 65.83 ± 0.81; Anti-oxidant activity, cells challenged with H2O2 (βTC6 insulinoma cell [2]; Pre-incubated, 1 pM, control 55.54): 55.32 ± 1.48; Anti-oxidant activity, cells challenged with H2O2 (βTC6 insulinoma cell [2]; Pre-incubated, 10 pM, control 55.54): 61.67 ± 2.10; Anti-oxidant activity, cells challenged with H2O2 (βTC6 insulinoma cell [2]; Pre-incubated, 0.1 nM, control 55.54): 65.18 ± 1.95; Anti-oxidant activity, cells challenged with H2O2 (βTC6 insulinoma cell [2]; Pre-incubated, 1 nM, control 55.54): 67.05 ± 2.40; Anti-oxidant activity, cells challenged with H2O2 (βTC6 insulinoma cell [2]; Pre-incubated, 10 nM, control 55.54): 69.58 ± 2.55; anti-oxidant activity (βTC6 insulinoma cell [2]; βTC6 cells challenged with hydrogen peroxide): potent anti-oxidant activity; protection against H2O2 induced cellular oxidative damage (βTC6 insulinoma cell [2]; βTC6 insulinoma cells): Mild Protection; Anti-oxidant activity, cells challenged with H2O2 (3T3-L1 cells [3]; Co-incubated, 10 pM, control 50.00): 54.85 ± 2.20; Anti-oxidant activity, cells challenged with H2O2 (3T3-L1 cells [3]; Co-incubated, 100 pM, control 50.00): 57.18 ± 1.20; Anti-oxidant activity, cells challenged with H2O2 (3T3-L1 cells [3]; Co-incubated, 1 nM, control 50.00): 59.87 ± 2.70; Anti-oxidant activity, cells challenged with H2O2 (3T3-L1 cells [3]; Co-incubated, 10 nM, control 50.00): 63.00 ± 1.10; Anti-oxidant activity, cells challenged with H2O2 (3T3-L1 cells [3]; Co-incubated, 100 nM, control 50.00): 65.75 ± 1.40; Anti-oxidant activity, cells challenged with H2O2 (3T3-L1 cells [3]; Pre-incubated, 10 pM, control 50.00): 53.18 ± 3.25; Anti-oxidant activity, cells challenged with H2O2 (3T3-L1 cells [3]; Pre-incubated, 100 pM, control 50.00): 55.13 ± 1.50; Anti-oxidant activity, cells challenged with H2O2 (3T3-L1 cells [3]; Pre-incubated, 1 nM, control 50.00): 57.00 ± 1.25; Anti-oxidant activity, cells challenged with H2O2 (3T3-L1 cells [3]; Pre-incubated, 10 nM, control 50.00): 61.40 ± 0.25; Anti-oxidant activity, cells challenged with H2O2 (3T3-L1 cells [3]; Pre-incubated, 100 nM, control 50.00): 67.25 ± 2.25; protection against H2O2 induced cellular oxidative damage (3T3-L1 cells [3]; pM-nM doses): mild protection; Anti-oxidant activity, cells challenged with H2O2 (L6 cells; Co-incubated, 10 pM, control 60.10): 56.13 ± 6.40; Anti-oxidant activity, cells challenged with H2O2 (L6 cells; Co-incubated, 100 pM, control 60.10): 60.50 ± 5.50; Anti-oxidant activity, cells challenged with H2O2 (L6 cells; Co-incubated, 1 nM, control 60.10): 63.91 ± 5.04; Anti-oxidant activity, cells challenged with H2O2 (L6 cells; Co-incubated, 10 nM, control 60.10): 67.53 ± 8.12; Anti-oxidant activity, cells challenged with H2O2 (L6 cells; Co-incubated, 100 nM, control 60.10): 71.70 ± 6.16; Anti-oxidant activity, cells challenged with H2O2 (L6 cells; Pre-incubated, 10 pM, control 60.10): 58.70 ± 4.70; Anti-oxidant activity, cells challenged with H2O2 (L6 cells; Pre-incubated, 100 pM, control 60.10): 63.30 ± 3.16; Anti-oxidant activity, cells challenged with H2O2 (L6 cells; Pre-incubated, 1 nM, control 60.10): 66.12 ± 5.85; Anti-oxidant activity, cells challenged with H2O2 (L6 cells; Pre-incubated, 10 nM, control 60.10): 66.70 ± 3.12; Anti-oxidant activity, cells challenged with H2O2 (L6 cells; Pre-incubated, 100 nM, control 60.10): 70.00 ± 5.95; protection against H2O2 induced cellular oxidative damage (L6 cells; pM-nM doses): mild protection; Anti-diabetic activity (glucose consumption) (L6-myotubes; 1 nM): 1.58 ± 0.10; Anti-diabetic activity (glucose consumption) (L6-myotubes; 5 nM): 1.78 ± 1.10; Anti-diabetic activity (glucose consumption) (L6-myotubes; 25 nM): 2.12 ± 0.09; Anti-diabetic activity (glucose consumption) (L6-myotubes; 125 nM): 2.35 ± 0.12; Anti-diabetic activity (glucose consumption) (L6-myotubes; 625 nM): 2.60 ± 0.10; glucose consumption (L6-myotubes; differentiated L6-myotubes, dose dependent): accelerated glucose consumption; Cell viability (3T3-L1 cells [4]; 10 pM): 100.00 ± 0.10; Cell viability (3T3-L1 cells [4]; 100 pM): 99.99 ± 0.54; Cell viability (3T3-L1 cells [4]; 1 nM): 99.45 ± 0.48; Cell viability (3T3-L1 cells [4]; 10 nM): 98.30 ± 1.80; Cell viability (3T3-L1 cells [4]; 100 nM): 98.90 ± 1.06; Cell viability (3T3-L1 cells [4]; 1 μM): 95.15 ± 1.58; Cell viability (3T3-L1 cells [4]; 10 μM): 89.26 ± 1.30; Cell viability (3T3-L1 cells [4]; 100 μM): 83.10 ± 1.67; toxicity to the cell (3T3-L1 cells [4]; 3T3-L1 cells, 1 μM): non-toxic

Question: With O=c1c(O)c(-c2ccc(O)c(O)c2)oc2cc(O)cc(O)c12 [Quercetin] as the compound, how does the “Anti-oxidant activity, cells challenged with H2O2” value (“Anti-oxidant activity … with H2O2” below) (βTC6 insulinoma cell [2]; Co-incubated, 0.1 pM, control 55.64) read?
Answer: 60.31 ± 2.71

Question: What about the “Anti-oxidant activity … with H2O2” value (βTC6 insulinoma cell [2]; Co-incubated, 1 pM, control 55.64) of the same compound?
Answer: 67.11 ± 2.71

Question: What about the “Anti-oxidant activity … with H2O2” value (βTC6 insulinoma cell [2]; Co-incubated, 10 pM, control 55.64) of the same compound?
Answer: 70.10 ± 2.30

Question: And the “Anti-oxidant activity … with H2O2” value (βTC6 insulinoma cell [2]; Co-incubated, 100 pM, control 55.64)?
Answer: 80.72 ± 1.20

Question: And the “Anti-oxidant activity … with H2O2” value (βTC6 insulinoma cell [2]; Co-incubated, 1 nM, control 55.64)?
Answer: 90.44 ± 1.94

Question: What about the “Anti-oxidant activity … with H2O2” value (βTC6 insulinoma cell [2]; Pre-incubated, 0.1 pM, control 55.64) of the same compound?
Answer: 64.00 ± 2.10

Question: And the “Anti-oxidant activity … with H2O2” value (βTC6 insulinoma cell [2]; Pre-incubated, 1 pM, control 55.64)?
Answer: 68.38 ± 1.79

Question: And the “Anti-oxidant activity … with H2O2” value (βTC6 insulinoma cell [2]; Pre-incubated, 10 pM, control 55.64)?
Answer: 77.51 ± 2.06

Question: What about the “Anti-oxidant activity … with H2O2” value (βTC6 insulinoma cell [2]; Pre-incubated, 100 pM, control 55.64) of the same compound?
Answer: 81.63 ± 1.50

Question: And the “Anti-oxidant activity … with H2O2” value (βTC6 insulinoma cell [2]; Pre-incubated, 1 nM, control 55.64)?
Answer: 87.59 ± 1.95

Question: And the “Anti-oxidant activity … with H2O2” value (3T3-L1 cells [3]; Co-incubated, 0.1 pM, control 50.00)?
Answer: 57.30 ± 1.70

Question: And the “Anti-oxidant activity … with H2O2” value (3T3-L1 cells [3]; Co-incubated, 1 pM, control 50.00)?
Answer: 65.00 ± 2.75

Question: What about the “Anti-oxidant activity … with H2O2” value (3T3-L1 cells [3]; Co-incubated, 10 pM, control 50.00 ± 0.40) of the same compound?
Answer: 68.01 ± 2.75

Question: What about the “Anti-oxidant activity … with H2O2” value (3T3-L1 cells [3]; Co-incubated, 100 pM, control 50.00 ± 0.40) of the same compound?
Answer: 78.70 ± 3.50

Question: What about the “Anti-oxidant activity … with H2O2” value (3T3-L1 cells [3]; Co-incubated, 1 nM, control 50.00 ± 0.40) of the same compound?
Answer: 88.40 ± 1.90

Question: And the “Anti-oxidant activity … with H2O2” value (3T3-L1 cells [3]; Pre-incubated, 0.1 pM, control 50.00)?
Answer: 61.00 ± 3.00

Question: What about the “Anti-oxidant activity … with H2O2” value (3T3-L1 cells [3]; Pre-incubated, 1 pM, control 50.00) of the same compound?
Answer: 65.00 ± 1.70

Question: What about the “Anti-oxidant activity … with H2O2” value (3T3-L1 cells [3]; Pre-incubated, 10 pM, control 50.00 ± 0.40) of the same compound?
Answer: 75.15 ± 2.99

Question: And the “Anti-oxidant activity … with H2O2” value (3T3-L1 cells [3]; Pre-incubated, 100 pM, control 50.00 ± 0.40)?
Answer: 88.60 ± 2.60

Question: And the “Anti-oxidant activity … with H2O2” value (3T3-L1 cells [3]; Pre-incubated, 1 nM, control 50.00 ± 0.40)?
Answer: 94.15 ± 1.70

Question: What about the “protection against H2O2 induced cellular oxidative damage” value (3T3-L1 cells [3]; [5]) of the same compound?
Answer: superior even at lower concentration

Question: What about the “Anti-oxidant activity … with H2O2” value (L6 cells; Co-incubated, 0.1 pM, control 61.10) of the same compound?
Answer: 57.50 ± 1.80

Question: What about the “Anti-oxidant activity … with H2O2” value (L6 cells; Co-incubated, 1 pM, control 61.10) of the same compound?
Answer: 65.05 ± 2.80

Question: And the “Anti-oxidant activity … with H2O2” value (L6 cells; Co-incubated, 10 pM, control 61.10)?
Answer: 70.36 ± 2.96

Question: What about the “Anti-oxidant activity … with H2O2” value (L6 cells; Co-incubated, 100 pM, control 61.10) of the same compound?
Answer: 78.18 ± 2.99

Question: And the “Anti-oxidant activity … with H2O2” value (L6 cells; Co-incubated, 1 nM, control 61.10)?
Answer: 88.64 ± 1.99

Question: What about the “Anti-oxidant activity … with H2O2” value (L6 cells; Pre-incubated, 0.1 pM, control 61.10) of the same compound?
Answer: 63.60 ± 1.50

Question: What about the “Anti-oxidant activity … with H2O2” value (L6 cells; Pre-incubated, 1 pM, control 61.10) of the same compound?
Answer: 68.02 ± 1.40

Question: And the “Anti-oxidant activity … with H2O2” value (L6 cells; Pre-incubated, 10 pM, control 61.10)?
Answer: 75.12 ± 3.50

Question: And the “Anti-oxidant activity … with H2O2” value (L6 cells; Pre-incubated, 100 pM, control 61.10)?
Answer: 87.90 ± 1.60

Question: What about the “Anti-oxidant activity … with H2O2” value (L6 cells; Pre-incubated, 1 nM, control 61.10) of the same compound?
Answer: 95.15 ± 0.99

Question: And the “protection against H2O2 induced cellular oxidative damage” value (L6 cells; [5])?
Answer: potent protection

Question: For “Insulin: reference line in the L6-myotubes glucose consumption table”, which “Anti-diabetic activity (glucose consumption)” value (L6-myotubes; Insulin line, concentration not given) is on record?
Answer: 3.70 ± 0.15

Source: patent US10149879B2 (priority 2014, dated 2018)
